4 molecules from patent US6429204B1, “Method of inhibiting cancer growth” (University of Miami, priority 1997, dated 2002) can be followed below.

Series [1] deals with C8161 cells. In words: C8161 cell proliferation (doubling time). The format is cell-based, human. The note with it: 50 μg/mL; for Doubling Time: on plastic, DMSO 22 hr; for increase of doubling time: versus DMSO. The procedure:
Cell Culture and Maintenance: C8161 cells, a human melanoma cell line, were maintained in Dulbecco's modified Eagle's medium (DMEM; […] These cells were routinely screened for Mycoplasma contamination using the GenProbe Rapid Detection System (Fisher Scientific; Chicago, Ill.). Chemically Modified Tetracyclines: Fresh stock solutions of the chemically modified tetracycline compounds (2 mg/mL) were prepared for each experiment by hydrating in 2% dimethyl sulfoxide (DMSO)/water pH 10, then adjusting to pH 7.4 using 1.0 M HCl. […] Sigma Chem. Co.; control) or 50 μg/mL of doxycycline or the other CMTs (three wells on each plate per compound). […] The doubling time for C8161 cells in the presence of each compound was then determined and compared to the DMSO treated cells (control).

Series [2] has as its system E-10 Cells. The series can be described thus: MTS cytotoxicity assay, E-10. The note with it: two days.
Another series concerns the target T1, Gelatinase B (Homo sapiens, UniProt P14780).
T1 construct: endogenous in cells; host or cells: C8161
The series can be described thus: Zymography with densitometry of C8161 conditioned medium, gelatinase B. The following applies: 50 μg/mL, 24 hr. It counts as cell-based. The procedure: (§1) Six hundred thousand (6×10^5) C8161 cells were seeded per well in a 12-well dish coated with a laminin/collagen IV/gelatin matrix in DMEM plus Mito+ and 0.1% gentamicin sulfate. After approximately 1 hr incubation to allow the cells to attach, 50 μg/mL of either doxycycline or one of the other CMTs was added per well and the dish then placed in a 37° C. humidified 5% CO2 incubator. After 24 hr, the supernatants were removed and centrifuged to remove any cells or debris. One volume of Laemmli sample buffer minus reductant was added to two volumes of the medium, and this sample electrophoresed without prior heating or boiling on a 10% SDS-PAGE containing 0.1% gelatin (samples normalized based on the same number of cells per volume of medium per time of incubation). After electrophoresis, the gels were washed with gentle shaking at room temperature for 30 min in 50 mM Tris-HCl (pH 7.5) plus 2.5% TRITON® X100 plus 50 μg/mL of the corresponding CMT used in the original treatment. The gel was then placed in incubation buffer (50 mM Tris-Cl/10 mM CaCl2/150 mM NaCl/0.05% NaN3) also containing 50 μg/mL of the corresponding CMT, and incubated at 37° C. for 20-24 hr. The gels were stained with Coomassie BBR-250, then destained with 10% methanol/10% acetic acid in water until the wash remained clear. A photographic negative of the gel was digitized using a video camera and Snappy Video Snapshot system (Play Inc., Rancho Cordova, Calif.). An integrated density was determined for each of the cleared zones of proteolysis using the software ImagePC8α (freely available from the National Institutes of Health), and the corresponding changes in gelatinolytic activities reported compared to the control samples normalized to a value of 1.0.

The subject of series [3] is COLO 205 Cells. The series can be described thus: MTS cytotoxicity assay, COLO 205. The note with it: two days.
Protocol: (§2) A panel of chemically modified tetracycline compounds and doxycycline were tested for cytotoxicity against two carcinomas: COLO 205 (a human colon carcinoma-derived cell line) and the E-10 clone of MDA-MB-231 (a human breast carcinoma-derived cell line). Cytoxicity was measured using a conventional assay for viability with a tetrazolium salt (MTS). Cells were grown in media containing the CMTs at concentrations ranging from 5 μM to 100 μM for two days. The cells were then incubated with the MTS for several hours before removal of the supernatant medium for determination of formazan, which is generated only by the viable cells. Results are expressed as percent cytotoxicity, which is simply the percent decline in measured formazan concentration in the sampled medium.
Series [4] concerns C8161 cells. In words: In vivo metastasis assay, C8161 cells i.v. in SCID mice. The note with it: for Number of Lung Metastases/Mouse: Average ± SEM, control 231 ± 49. The procedure: Immunosuppressed mice (athymic nude/nude SCID females from Harlan Sprague Dawley) were housed in autoclaved cages with microisolator tops, and all manipulations of the animals were done in a laminar flow hood after wiping down both the hood, gloves and cages with ABQ sterilant. The mice were fed sterile Pico Lab Chow (Purina) and autoclaved St. Louis tap water. […] The compounds and control (sterile water plus 2% carboxymethyl cellulose) were kept stored at −80° C. wrapped in aluminum foil to prevent any light induced changes, and each day's supply was thawed just prior to use. Four compounds were tested for their effects on the metastatic potential of C8161 cells injected intravenously via the tail vein: […] The concentration of the compounds in the vials used to give the 100 mg/kg doses were 2.5 times that in the 40 mg/kg dose so that approximately the same volume was used in both cases, approximately 0.5 mL/animal. The experiments started with nine animals per group at day −4. On day zero, 2×10^5 C8161 cells in cold Hank's Balanced Salt Solution (HBSS) were injected intravenously via tail vein inoculation. The experiment was continued for an additional 24 days, at which time the animals were sacrificed and their lungs removed and fixed in a solution of Bouins/formaldehyde (5 parts:1 part). Tumors were quantitated on the entire surface of the lungs by rotating the lungs and counting the tumors on each lobe using a 6× magnifying glass. Statistical analysis was performed using the statistical package of Microsoft's Excel spreadsheet software.

A further series addresses T2, Gelatinase A (Homo sapiens, UniProt P08253).
T2 construct: endogenous in cells; host or cells: C8161
T2 sequence (P08253 110-660): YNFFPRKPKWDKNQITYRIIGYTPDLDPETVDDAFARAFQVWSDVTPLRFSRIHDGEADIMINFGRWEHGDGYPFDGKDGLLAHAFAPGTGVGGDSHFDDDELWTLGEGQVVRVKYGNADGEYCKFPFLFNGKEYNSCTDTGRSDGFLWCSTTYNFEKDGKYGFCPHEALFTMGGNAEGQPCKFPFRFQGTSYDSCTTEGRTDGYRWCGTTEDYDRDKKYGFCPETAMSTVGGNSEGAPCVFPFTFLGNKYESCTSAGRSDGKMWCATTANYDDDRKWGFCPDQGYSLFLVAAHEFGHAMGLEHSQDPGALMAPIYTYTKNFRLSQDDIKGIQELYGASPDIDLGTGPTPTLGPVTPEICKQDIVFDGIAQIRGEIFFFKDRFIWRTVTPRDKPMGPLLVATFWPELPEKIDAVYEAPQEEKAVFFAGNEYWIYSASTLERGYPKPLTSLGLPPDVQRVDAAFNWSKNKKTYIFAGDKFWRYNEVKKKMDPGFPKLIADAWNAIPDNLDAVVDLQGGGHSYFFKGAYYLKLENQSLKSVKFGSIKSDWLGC
The series can be described thus: Zymography with densitometry of C8161 conditioned medium, gelatinase A. The note with it: 50 μg/mL, 24 hr. The format is cell-based. As for the experimental part: as §1

For series [5], the system named is C8161 human melanoma cells. In words: In vitro invasion assay (MICS), laminin/collagen IV/gelatin matrix-coated filter. It counts as cell-based. The following applies: 3, 20 and 50 μg/mL; for Percent Inhibition of invasive potential: 48 hr. The procedure: The in vitro invasive potentials of the control (DMSO only) and chemically-modified tetracycline treated cells were measured using a modified Boyden chamber as previously described (Membrane Invasion Culture System, MICS). An intervening barrier consisting of a polycarbonate filter containing 10 μm pores (Osmonics, Livermore, Calif.) coated with a defined matrix of human laminin/collagen IV/gelatin (Sigma, St. Louis, Mo.) was used for these studies. […] Doxycycline or individual CMTs were then added to different wells of the chamber at 3, 20 or 50 μg/mL 2 hr post-seeding and daily during the assay. After 48 hr, the cells were removed from the lower wells and the number of invasive cells was determined and compared to the original number of cells seeded into the upper wells. Where appropriate, data were corrected for proliferation during the period of the in vitro assay.

Series [6] has as its system DU-145 and TSU-PR1 prostate cancer cell lines. The series can be described thus: Prostate cancer cell viability/proliferation (trypan blue, MTT). The format is cell-based, human. An excerpt:
To determine the cytotoxicity of CMTs on prostate tumor cell lines, TSU-PR1 cells (and cells of other tumor cell lines) were exposed to various CMTs or to doxycycline for 24 hr or 48 hr in a complete medium. Cell viability (percent of live cells) was estimated by counting the cells following trypan blue staining. Cellular viability was also estimated by the tetrazolium dye reduction assay (MTT assay) (Lokeshwar et al. 1995b). Due to the aggressive proliferative capacity of cancer cells, it is assumed that viable cells are actively proliferating. Therefore, the measurement of viability was used as an estimate of proliferation. Results are expressed as Mean±SEM from three separate experiments.

The subject of series [7] is E-10 Cells.
Series [8] has as its system COLO 205 Cells.
Protocol: as §2

Read-outs that look alike come from different tables or passages of the source.

T1 sequence (P14780 94-707): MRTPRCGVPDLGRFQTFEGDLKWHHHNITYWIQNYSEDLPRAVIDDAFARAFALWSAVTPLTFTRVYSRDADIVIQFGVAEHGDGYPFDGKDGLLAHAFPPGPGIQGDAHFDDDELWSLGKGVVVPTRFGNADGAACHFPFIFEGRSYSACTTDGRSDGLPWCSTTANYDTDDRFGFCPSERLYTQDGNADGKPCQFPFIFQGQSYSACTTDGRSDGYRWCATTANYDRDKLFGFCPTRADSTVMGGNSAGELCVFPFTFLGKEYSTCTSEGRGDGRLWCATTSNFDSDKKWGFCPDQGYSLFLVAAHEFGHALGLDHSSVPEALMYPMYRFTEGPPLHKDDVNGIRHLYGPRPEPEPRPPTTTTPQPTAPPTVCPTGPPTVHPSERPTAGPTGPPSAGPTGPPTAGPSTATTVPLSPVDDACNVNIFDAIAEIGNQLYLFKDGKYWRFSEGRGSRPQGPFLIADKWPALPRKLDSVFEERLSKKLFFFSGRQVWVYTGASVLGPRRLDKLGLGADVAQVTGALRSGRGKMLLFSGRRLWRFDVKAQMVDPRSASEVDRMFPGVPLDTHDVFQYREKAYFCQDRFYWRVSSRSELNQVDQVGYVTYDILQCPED

Regarding `C[C@H]1c2cccc(O)c2C(O)=C2C(=O)[C@]3(O)C(O)=C(C(N)=O)C(=O)C[C@@H]3[C@@H](O)[C@@H]21` [CMT-8, 6α-deoxy-5-hydroxy-4-de(dimethylamino)tetracycline], in the series on C8161 cells [1], the “Doubling Time” value is 26 h. Also, in the series with C8161 cells [1], the “increase of doubling time” value is recorded as “approximately 18%”. The percent cytotoxicity with E-10 Cells [2] (5 μM), with E-10 Cells [2] (10 μM), in the series on E-10 Cells [2] (20 μM), in the series on E-10 Cells [2] (50 μM), in the series on E-10 Cells [2] (100 μM) and with COLO 205 Cells [3] (5 μM) was 0% in each case. The percent cytotoxicity with COLO 205 Cells [3] (10 μM) was 20.5%; in the series on COLO 205 Cells [3] (20 μM) it was 35.5%; with COLO 205 Cells [3] (50 μM) it was 44.4%; in the series with COLO 205 Cells [3] (100 μM) it was 50%. At Gelatinase B, the “Gelatinase B, integrated density normalized to control 1.00” value is listed as 1.05. In addition, in the series on C8161 cells [4] (40 mg/kg daily intragastric), the “Number of Lung Metastases/Mouse” value worked out at 186 ± 60. Moreover, in the series with C8161 cells [4] (at either dosage, p>0.05), the “effect on number of lung metastases (significance)” value is “did not significantly reduce the number of lung metastases”. For the same molecule, the “Gelatinase A, integrated density normalized to control 1.00” value on Gelatinase A is listed as 0.70. Moreover, the “Type of Inhibition” value in [5] is listed as “non-dose”. In addition, in series [5], the “Percent Inhibition of invasive potential” value was “˜12%”.
As for tetracycline pyrazole [CMT-5], in [6], the “inhibition of cell proliferation” value was “not inhibitory”.
With `CC1(O)c2cccc(O)c2C(=O)C2=C(O)C3(O)C(=O)C(C(N)=O)=C(O)CC3CC21` (stereo not shown) [CMT-1, 4-de(dimethylamino)tetracycline], in the series with C8161 cells [1], the “Doubling Time” value was 24 h. The “increase of doubling time” value in the series on C8161 cells [1] is “approximately 9%”. The percent cytotoxicity in the series on E-10 Cells [2] (5 μM) was found to be 7.6%; in the series on E-10 Cells [2] (10 μM) it was 0%; in the series on E-10 Cells [2] (20 μM), 0%; in the series on E-10 Cells [2] (50 μM), 2.2%; in the series on E-10 Cells [2] (100 μM) it was 7.6%; with COLO 205 Cells [3] (5 μM), 0%. The percent cytotoxicity with COLO 205 Cells [3] (10 μM) is reported as 4%; with COLO 205 Cells [3] (20 μM) it was 32.5%; with COLO 205 Cells [3] (50 μM), 63.8%; in the series with COLO 205 Cells [3] (100 μM), 82.8%. In addition, the “Gelatinase B, integrated density normalized to control 1.00” value at Gelatinase B is given as 0.22. Further, the “Number of Lung Metastases/Mouse” value in the series on C8161 cells [4] (40 mg/kg daily intragastric) was found to be 129 ± 102; in the series on C8161 cells [4] (100 mg/kg daily intragastric), 240 ± 28. For the same molecule, the “effect on number of lung metastases (significance)” value was “significantly reduced the number of lung metastases” with C8161 cells [4] (40 mg/kg daily, p<0.05) and “did not significantly reduce the number of lung metastases” with C8161 cells [4] (100 mg/kg). Besides, the “Gelatinase A, integrated density normalized to control 1.00” value on Gelatinase A worked out at 0.24. The “Type of Inhibition” value in series [5] was “dose-dependent”. In [5], the “Percent Inhibition of invasive potential” value is given as 26-58%.
Regarding `CC1(O)c2c(Cl)ccc(O)c2C(=O)C2=C(O)C3(O)C(=O)C(C(N)=O)=C(O)CC3CC21` (stereo not shown) [CMT-4, 4-de(dimethylamino)-7-chlorotetracycline], the percent cytotoxicity in the series on E-10 Cells [7] (5 µM) turned out to be 9%; in the series on E-10 Cells [7] (10 µM), 16.7%; with E-10 Cells [7] (20 μM), 0.8%; in the series with E-10 Cells [7] (50 µM), 0%; in the series with E-10 Cells [7] (100 µM), 0%; with COLO 205 Cells [8] (5 µM) it was 1.8%. For the same molecule, the percent cytotoxicity was found to be 6.8% in the series on COLO 205 Cells [8] (10 µM), 25.3% with COLO 205 Cells [8] (20 μM), 73.3% in the series on COLO 205 Cells [8] (50 µM) and 81.9% with COLO 205 Cells [8] (100 µM). The “Doubling Time” value in the series with C8161 cells [1] worked out at 22 h. Further, the “increase of doubling time” value in the series with C8161 cells [1] is given as “did not affect the doubling time”. Besides, the “Gelatinase B, integrated density normalized to control 1.00” value at Gelatinase B is reported as 0.12. Besides, the “Gelatinase A, integrated density normalized to control 1.00” value at Gelatinase A stood at 0.75. Moreover, the “Type of Inhibition” value in series [5] is “non-dose”. The “Percent Inhibition of invasive potential” value in [5] is “˜20%”.
